Results as given in paper PMC4790851, “Iminosugars Inhibit Dengue Virus Production via Inhibition of ER Alpha-Glucosidases—Not Glycolipid Processing Enzymes” (PLoS Neglected Tropical Diseases, 2016).

Assays:
MDMΦs = experiment: Cytotoxicity, MTS cell proliferation assay; format: cell-based, human
Description: Cytotoxicity of compounds was assessed by a cell proliferation assay for metabolic activity using a CellTiter 96 AQueous One Solution Cell Proliferation Assay (Promega) as per the manufacturer’s instructions. Briefly, 20 μl of a solution containing tetrazolium compound [3-(4,5-[…])-5-(3-carboxymethoxyphenyl)-2-(4-sulfophenyl)-2H-tetrazolium; MTS] and electron coupling reagent (phenazine ethosulfate) was added to cells covered or suspended in 100 μl of culture medium in a 96-well plate. Samples were incubated for approximately 4 hours (37°C, 5% CO2), and the absorbance at 490 nm (A490) was measured on a SpectraMax M5 microplate reader (Molecular Devices).

[1] = target: T1, Mouse ER α-glucosidase II (Mus musculus, UniProt Q8BHN3); experiment: In vitro enzyme inhibition, 4MUG hydrolysis; format: biochemical; conditions: concentration required to inhibit the enzyme to 50% activity
T1 sequence (Q8BHN3 33-944): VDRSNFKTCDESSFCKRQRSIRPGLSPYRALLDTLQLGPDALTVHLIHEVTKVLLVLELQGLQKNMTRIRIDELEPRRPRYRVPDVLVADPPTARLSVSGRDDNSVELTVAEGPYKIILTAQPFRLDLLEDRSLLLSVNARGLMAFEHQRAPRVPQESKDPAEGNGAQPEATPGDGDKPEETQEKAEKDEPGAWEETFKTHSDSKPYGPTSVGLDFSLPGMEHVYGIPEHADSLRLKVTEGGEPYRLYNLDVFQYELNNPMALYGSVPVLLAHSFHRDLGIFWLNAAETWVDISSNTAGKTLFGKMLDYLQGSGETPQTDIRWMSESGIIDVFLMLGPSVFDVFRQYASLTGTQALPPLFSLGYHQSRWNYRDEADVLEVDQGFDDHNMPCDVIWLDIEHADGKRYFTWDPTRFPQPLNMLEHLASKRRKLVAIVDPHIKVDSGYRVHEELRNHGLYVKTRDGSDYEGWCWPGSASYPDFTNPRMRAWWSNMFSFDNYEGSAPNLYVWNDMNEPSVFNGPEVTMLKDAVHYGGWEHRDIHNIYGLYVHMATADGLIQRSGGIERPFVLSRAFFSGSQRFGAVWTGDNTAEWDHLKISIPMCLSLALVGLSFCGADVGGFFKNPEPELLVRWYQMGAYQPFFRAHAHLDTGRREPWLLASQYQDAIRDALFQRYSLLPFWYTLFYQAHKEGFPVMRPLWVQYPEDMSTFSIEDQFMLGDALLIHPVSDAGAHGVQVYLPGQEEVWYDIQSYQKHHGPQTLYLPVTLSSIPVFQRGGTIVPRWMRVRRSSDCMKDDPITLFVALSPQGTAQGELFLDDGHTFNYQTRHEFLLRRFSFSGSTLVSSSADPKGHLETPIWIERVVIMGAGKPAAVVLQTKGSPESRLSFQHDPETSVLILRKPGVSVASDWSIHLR
T1 sequence (O08795 15-521 partner): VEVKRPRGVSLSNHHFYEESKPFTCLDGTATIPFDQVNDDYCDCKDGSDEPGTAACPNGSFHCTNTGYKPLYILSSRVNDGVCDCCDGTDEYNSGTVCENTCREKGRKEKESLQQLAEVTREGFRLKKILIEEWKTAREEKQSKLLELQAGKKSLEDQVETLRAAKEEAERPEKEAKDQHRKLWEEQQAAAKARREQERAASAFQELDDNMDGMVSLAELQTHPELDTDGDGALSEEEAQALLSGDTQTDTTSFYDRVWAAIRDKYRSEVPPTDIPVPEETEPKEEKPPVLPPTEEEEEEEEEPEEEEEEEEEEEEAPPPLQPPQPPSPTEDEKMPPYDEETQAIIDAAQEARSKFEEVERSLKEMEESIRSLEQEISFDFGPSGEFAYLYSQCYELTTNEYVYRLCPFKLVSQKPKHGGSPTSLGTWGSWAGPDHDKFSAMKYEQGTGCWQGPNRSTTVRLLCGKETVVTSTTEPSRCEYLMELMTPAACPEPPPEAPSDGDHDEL
Description: Recombinant Mus musculus ER alpha-glucosidase II inhibition was measured by incubating 20 nM enzyme with various concentrations of inhibitors in 100 mM potassium phosphate pH 7.2 at 37 °C for 5 minutes. Activity was measured by addition of 0.25 mM 4-methylumbelliferyl α-D-glucopyranoside (4MUG) (Sigma Aldrich) in black, non-binding surface-treated microplates (Corning). Fluorescence upon hydrolysis of the 4MUG was measured at λex of 355 nm and λem of 460 nm in a M5 multi-mode plate reader (Molecular Devices) at 37 °C, measuring fluorescence every minute for a total of 30 minutes. The initial velocity was fit in the linear range of measurements, and activity was normalized to the uninhibited control in order to plot activity against the inhibitor concentration. A sigmoidal, four-parameter function with a variable slope was used to determine the EC50 values in Prism (GraphPad).

Rat intestinal maltase = experiment: In vitro enzyme inhibition, glucose release from disaccharide; format: biochemical; conditions: concentration required to inhibit the enzyme to 50% activity
Description: Inhibition of glucosidases and glycosidases was detected as previously described. Briefly, assays were performed at the optimum pH of each enzyme, and appropriate disaccharide was provided as substrate for glucosidase release assays. Release of D-glucose was measured using a Glucose B-test (Wako Diagnostics). Appropriate p-nitrophenyl glycoside was added as substrate for additional glycosidase assays, and assays were stopped by adding 400 mM Na2CO3. Release of p-nitrophenol was measured spectrophotometrically at 400 nm.

[2] = target: T2, Rat intestinal isomaltase (Rattus norvegicus, UniProt P23739); experiment: as above; format: biochemical; conditions: concentration required to inhibit the enzyme to 50% activity; read-out: IC50
T2 construct: from tissue; host or cells: rat intestine

[3] = tested on: monosialodihexosylganglioside (GM3) production; experiment: Glycosphingolipid analysis: GM3 levels in MDMΦs by NP-HPLC; format: cell-based, human; conditions: 48 h; for GM3 production (%): uninfected MDMΦ, normalized to untreated controls, mean ± SD, min. 3 donors

T2 sequence (P23739 whole entry): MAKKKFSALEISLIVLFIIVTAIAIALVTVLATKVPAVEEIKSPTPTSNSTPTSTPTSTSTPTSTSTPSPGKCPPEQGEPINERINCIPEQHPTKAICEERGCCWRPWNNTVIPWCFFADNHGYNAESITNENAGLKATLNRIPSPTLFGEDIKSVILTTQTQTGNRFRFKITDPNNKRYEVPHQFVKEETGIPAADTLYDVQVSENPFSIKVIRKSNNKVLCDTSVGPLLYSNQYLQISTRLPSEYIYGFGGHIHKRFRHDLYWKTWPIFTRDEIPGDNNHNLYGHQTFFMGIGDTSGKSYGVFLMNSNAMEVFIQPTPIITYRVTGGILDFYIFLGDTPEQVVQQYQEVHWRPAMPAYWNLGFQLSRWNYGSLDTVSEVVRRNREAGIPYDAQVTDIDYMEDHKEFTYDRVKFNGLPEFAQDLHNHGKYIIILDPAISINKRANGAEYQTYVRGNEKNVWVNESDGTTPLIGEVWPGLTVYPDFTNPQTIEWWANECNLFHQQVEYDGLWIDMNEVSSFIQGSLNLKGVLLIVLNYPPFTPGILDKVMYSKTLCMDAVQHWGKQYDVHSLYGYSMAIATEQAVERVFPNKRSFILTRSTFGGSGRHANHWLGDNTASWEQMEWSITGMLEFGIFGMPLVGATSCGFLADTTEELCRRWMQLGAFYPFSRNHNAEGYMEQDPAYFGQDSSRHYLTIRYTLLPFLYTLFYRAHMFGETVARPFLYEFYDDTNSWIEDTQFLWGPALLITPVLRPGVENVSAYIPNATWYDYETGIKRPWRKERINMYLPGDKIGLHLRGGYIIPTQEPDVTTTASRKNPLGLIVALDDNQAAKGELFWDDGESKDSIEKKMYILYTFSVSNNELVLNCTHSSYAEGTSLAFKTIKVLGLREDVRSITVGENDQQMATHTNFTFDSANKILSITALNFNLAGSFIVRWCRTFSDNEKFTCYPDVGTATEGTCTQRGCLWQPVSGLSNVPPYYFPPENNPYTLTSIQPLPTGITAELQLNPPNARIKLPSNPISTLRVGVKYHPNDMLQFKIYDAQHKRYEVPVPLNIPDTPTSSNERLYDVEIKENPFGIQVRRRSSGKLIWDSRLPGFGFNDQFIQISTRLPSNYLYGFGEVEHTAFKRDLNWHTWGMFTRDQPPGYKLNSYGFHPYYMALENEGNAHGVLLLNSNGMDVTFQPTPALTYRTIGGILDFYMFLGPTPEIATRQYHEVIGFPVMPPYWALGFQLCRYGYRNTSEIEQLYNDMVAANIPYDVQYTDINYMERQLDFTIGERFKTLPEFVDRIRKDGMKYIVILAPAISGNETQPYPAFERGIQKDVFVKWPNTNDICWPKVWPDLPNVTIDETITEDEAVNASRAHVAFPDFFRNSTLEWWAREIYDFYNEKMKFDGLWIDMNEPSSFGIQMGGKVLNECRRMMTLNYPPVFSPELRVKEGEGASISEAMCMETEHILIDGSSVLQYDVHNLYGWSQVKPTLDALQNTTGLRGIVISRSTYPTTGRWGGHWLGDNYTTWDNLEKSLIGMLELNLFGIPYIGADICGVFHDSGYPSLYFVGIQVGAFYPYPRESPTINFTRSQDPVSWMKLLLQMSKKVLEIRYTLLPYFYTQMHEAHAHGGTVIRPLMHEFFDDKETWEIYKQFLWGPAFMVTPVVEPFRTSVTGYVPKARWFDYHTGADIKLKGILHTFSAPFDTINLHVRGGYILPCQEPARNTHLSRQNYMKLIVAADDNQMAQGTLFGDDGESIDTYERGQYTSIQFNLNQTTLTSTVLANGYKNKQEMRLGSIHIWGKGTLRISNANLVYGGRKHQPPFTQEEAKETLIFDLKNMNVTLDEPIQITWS

IC50 [2] [µM]	Compound	MNTD (maximum non-toxic dose tested) (MDMΦs) [µM]	IC50 [1] [µM]	IC50 (Rat intestinal maltase) [µM]	GM3 production (%) ([3]; 100 μM (MNTD))	concentration up to which cytotoxicity was not detected (MDMΦs) [µM]	GM3 production (%) ([3]; 31.6 μM (MNTD))	inhibition at 10 µM ([3]; Homo sapiens, 10 μM, MDMΦs) [%]	EC50 ([3]; Homo sapiens, titration 1 to 100 μM, three donors, read-out: 95% CI for GM3 EC50) [nM]
> 1000	CCCCN1C[C@H](O)[C@@H](O)[C@@H](O)[C@H]1CO [NB-DGJ]	100	> 1000	> 1000	7.3 ± 1.9	> 100	–	–	–
> 1000	CCCCCCCCCN1C[C@H](O)[C@@H](O)[C@@H](O)[C@H]1CO [NN-DGJ]	31.6	> 1000	> 1000	–	–	4.9 ± 1.9	–	–
–	CCCCN1C[C@H](O)[C@@H](O)[C@H](O)[C@H]1CO [NB-DNJ, N-butyl-DNJ]	100	5.2	1.1	8.8 ± 3.6	–	–	90 to 95	800 to 1370

Compound	IC50 [2] [µM]	MNTD (maximum non-toxic dose tested) (MDMΦs) [µM]	IC50 [1] [µM]	IC50 (Rat intestinal maltase) [µM]	GM3 production (%) ([3]; 100 μM (MNTD))	concentration up to which cytotoxicity was not detected (MDMΦs) [µM]	GM3 production (%) ([3]; 31.6 μM (MNTD))	inhibition at 10 µM ([3]; Homo sapiens, 10 μM, MDMΦs) [%]	EC50 ([3]; Homo sapiens, titration 1 to 100 μM, three donors, read-out: 95% CI for GM3 EC50) [nM]
CCCC(=O)O[C@H]1CN2CC[C@H](O)[C@@H]2[C@@H](O)[C@@H]1O [Celgosivir, 6-O-butanoyl-castanospermine]	29.3	100	158	17	100.9 ± 4.1	–	–	–	–
